Consider three molecules from patent US11434479B2, “Sialic acid binding polypeptide” (priority 2017, dated 2022).

Residue numbers refer to the chain shown, from its start. pKd: −log10 of the molar value. Entries after “also recorded” stand apart in the source; their conditions may differ.

Test [1] deals with T1, Streptococcus pneumoniae NanB fragment (residues 30-697, SEQ ID NO:4) variant Sia-PS1, Y653F (Streptococcus pneumoniae serotype 4, UniProt Q54727, Y653F).
T1 construct: exemplified by a NanB fragment (residues 30-697); made in house; host or cells: pET28a+ based plasmid
T1 sequence (Q54727 30-692 Y653F): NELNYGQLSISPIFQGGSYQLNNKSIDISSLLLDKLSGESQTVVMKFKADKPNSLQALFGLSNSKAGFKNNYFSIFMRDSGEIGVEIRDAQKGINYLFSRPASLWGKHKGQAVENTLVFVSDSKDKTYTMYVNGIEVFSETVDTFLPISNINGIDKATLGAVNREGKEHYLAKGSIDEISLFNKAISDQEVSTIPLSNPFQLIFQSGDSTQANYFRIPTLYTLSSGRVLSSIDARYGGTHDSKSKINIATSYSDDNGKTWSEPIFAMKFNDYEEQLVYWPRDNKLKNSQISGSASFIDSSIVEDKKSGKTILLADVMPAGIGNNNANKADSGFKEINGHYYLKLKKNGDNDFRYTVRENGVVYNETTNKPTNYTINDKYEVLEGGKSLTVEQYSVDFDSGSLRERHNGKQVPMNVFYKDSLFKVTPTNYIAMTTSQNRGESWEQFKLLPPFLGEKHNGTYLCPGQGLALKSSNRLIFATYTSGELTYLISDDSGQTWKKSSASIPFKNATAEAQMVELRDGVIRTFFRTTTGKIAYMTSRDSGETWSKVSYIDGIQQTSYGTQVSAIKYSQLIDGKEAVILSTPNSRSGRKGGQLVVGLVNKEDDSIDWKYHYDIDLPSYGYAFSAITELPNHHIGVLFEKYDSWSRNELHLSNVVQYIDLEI
Briefly: Bio-layer Interferometry (BLI) steady-state binding to immobilized oligosaccharides. The settings on record: in words. An excerpt: Lsp=lactose (no sialic acid), 3′SL=α2,3-sialyllactose, 6′SL=α2,6-sialyllactose, GD3=GD3 oligosaccharide that contains a terminal α2,8-linked Neu5Ac residue and an internal α2,3-linked Neu5Ac residue.
The pan-specific sialic acid-recognizing affinity reagent of the invention is exemplified by a NanB fragment (residues 30-697; SEQ ID NO:4) with a single mutation. Exemplary mutation sites include Y653, D270, and E541. Exemplary pan-specific affinity reagents, each having a single mutation in the NanB GH domain as noted, are shown in Table 2 and include Sia-PS1 (Y653F), Sia-PS2 (D270A), Sia-PS3 (D270N), Sia-PS4 (E541A), and Sia-PS5 (E541Q). […] They reduce (Sia-PS2 and Sia-PS3) or effectively eliminate (Sia-PS1, Sia-PS4, and Sia-PS5) catalytic activity, and they broaden specificity for sialic acid ligand binding. The pan-specific sialic acid-recognizing affinity reagent we chose for further validation study was Sia-PS1 that contains the Y653F at active site residue Tyr653. This one mutation, which involves removal of a single hydroxyl group, not only eliminates enzyme activity, but astonishingly introduces pan-specific binding into the mutated, inactivated enzyme, despite its distance from the carbohydrate binding module (CBM) domain of the NanB.
(§1) The flowchart presented in FIG. 2 outlines schematically the methods employed in Example I and II to screen, optimize and select the Lectenz® candidates. The specificity and affinity of potential Lectenz® candidates is evaluated through structurally-guided site-specific and/or site-saturation mutagenesis assays designed to enable the selection of optimal clones. Bio-layer Interferometry (BLI) is used to determine the binding kinetics and affinities for binding to glycans and glycoproteins. Affinity chromatography is performed by immobilizing the Lectenz® candidates in a column format to evaluate their ability to fractionate sialylated- and asialo-glycans and glycoconjugates. All promising Lectenz® candidates are screened against the glycan array at the CFG, which currently contains over 600 O- and N-linked glycans.
Steady-state binding constants between Lectenz® candidates and sialic acid ligands were measured by BLI.
In general terms: BLI is a label-free optical method that tracks binding on a fibre tip over time.

The target in test [2] is T2, Streptococcus pneumoniae NanB fragment (residues 30-697, SEQ ID NO:4) variant Sia-3S1, R193A, D270Q, A538V, E541D (Streptococcus pneumoniae serotype 4, UniProt Q54727, A538V/D270Q/E541D/R193A).
T2 construct: exemplified by a NanB fragment (residues 30-697); made in house; host or cells: E. coli
T2 sequence (Q54727 30-692 R193A/D270Q/A538V/E541D): T1 sequence (Q54727 30-692 Y653F) with R164A, D241Q, A509V, E512D, F624Y
Briefly: Bio-layer Interferometry (BLI) binding to immobilized 3′SL and 6′SL. The settings on record: in words, well-defined buffer conditions (10 mM EPPS, 10 or 25 mM NaCl, pH 7.5). As for the experimental part:
FIGS. 14A and […] show BLI sensograms for the binding of Sia-3S1 (analyte) under different buffer conditions to oligosaccharides (immobilized ligands): 3′SL=α2,3-sialyllactose, 6′SL=α2,6-sialyllactose.
as §1
The methods are as described in Example I.

Test [3] deals with MAL (Maackia amurensis leukoagglutinin). The settings on record: reported values [16, 17]; cited from earlier work.
Test [4] deals with SNA (S. Nigra lectin). Conditions: reported values [16]; cited from earlier work.

Usually pKd stands for the negative decadic logarithm of the Kd, by convention in mol/L. In the case of `CC(=O)N[C@H]1[C@H]([C@H](O)[C@H](O)CO)O[C@@](O[C@H]2[C@@H](O)[C@@H](CO)O[C@@H](O[C@H]3[C@H](O)[C@@H](O)C(O)O[C@@H]3CO)[C@@H]2O)(C(=O)O)C[C@@H]1O` (stereo partly drawn) [3′SL, α2,3-sialyllactose], the binding affinity entry in test [1] is on record as “micromolar or sub-micromolar; also recorded: sub-micromolar”. Also, the affinity entry in test [2] is “high and preferential affinity for 3′SL over 6′SL”. In addition, the pKd in test [3] is 5.52 to 6.00.

As to `CC(=O)N[C@H]1[C@H]([C@H](O)[C@H](O)CO)O[C@@](OC[C@H]2O[C@@H](O[C@H]3[C@H](O)[C@@H](O)C(O)O[C@@H]3CO)[C@H](O)[C@@H](O)[C@H]2O)(C(=O)O)C[C@@H]1O` (stereo partly drawn) [6′SL, 6′-sialyllactose (Neu5Acα2,6Galβ1, 4Glcβ, or 6′SL)], the binding affinity result in test [1] is on record as “micromolar or sub-micromolar; also recorded: sub-micromolar”. The pKd in test [4] was 6.05 to 6.22.

In the case of `CC(=O)N[C@H]1[C@H]([C@H](O)[C@H](O)CO)O[C@@](O[C@H](CO)[C@@H](O)[C@@H]2O[C@@](O[C@H]3[C@@H](O)[C@@H](CO)O[C@@H](O[C@H]4[C@H](O)[C@@H](O)C(O)O[C@@H]4CO)[C@@H]3O)(C(=O)O)C[C@H](O)[C@H]2NC(C)=O)(C(=O)O)C[C@@H]1O` (stereo partly drawn) [GD3, Neu5Acα2,8Neu5Acα2,3Galβ1, 4Glcβ], in test [1], the binding affinity entry is “micromolar or sub-micromolar; also recorded: sub-micromolar”.
